In ChEMBL document CHEMBL1145240, “Discovery of novel conformationally constrained tropane-based biaryl and arylacetylene ligands as potent and selective norepinephrine transporter inhibitors and potential antidepressants” (Bioorg Med Chem Lett, 2005):

Tests used:
[1] = molecular target: Muscarinic acetylcholine receptor; assay: Inhibition of [3H]QNB binding to muscarinic receptor of rat cortex
[2] = molecular target: Sodium-dependent serotonin transporter (Rattus norvegicus, UniProt P31652); assay: Inhibitory constant against reuptake of [3H]5-HT at serotonin transporter of rat […]; format: tissue-based
[3] = molecular target: Sodium-dependent dopamine transporter (Rattus norvegicus, UniProt P23977); assay: Inhibitory constant against reuptake of [3H]-DA at dopamine transporter of rat striatal membranes; format: cell membranes, Membrane
[4] = molecular target: T1, Norepinephrine transporter (Rattus norvegicus, UniProt Q9WTR4); assay: Inhibitory constant against reuptake of [3H]NE at norepinephrine transporter of rat parietal-occipital cortex
[5] = molecular target: T1, Norepinephrine transporter; assay: Inhibitory constant for [3H]NE reuptake at norepinephrine transporter of rat parietal-occipital cortex

Chain of Sodium-dependent dopamine transporter (P23977 whole entry): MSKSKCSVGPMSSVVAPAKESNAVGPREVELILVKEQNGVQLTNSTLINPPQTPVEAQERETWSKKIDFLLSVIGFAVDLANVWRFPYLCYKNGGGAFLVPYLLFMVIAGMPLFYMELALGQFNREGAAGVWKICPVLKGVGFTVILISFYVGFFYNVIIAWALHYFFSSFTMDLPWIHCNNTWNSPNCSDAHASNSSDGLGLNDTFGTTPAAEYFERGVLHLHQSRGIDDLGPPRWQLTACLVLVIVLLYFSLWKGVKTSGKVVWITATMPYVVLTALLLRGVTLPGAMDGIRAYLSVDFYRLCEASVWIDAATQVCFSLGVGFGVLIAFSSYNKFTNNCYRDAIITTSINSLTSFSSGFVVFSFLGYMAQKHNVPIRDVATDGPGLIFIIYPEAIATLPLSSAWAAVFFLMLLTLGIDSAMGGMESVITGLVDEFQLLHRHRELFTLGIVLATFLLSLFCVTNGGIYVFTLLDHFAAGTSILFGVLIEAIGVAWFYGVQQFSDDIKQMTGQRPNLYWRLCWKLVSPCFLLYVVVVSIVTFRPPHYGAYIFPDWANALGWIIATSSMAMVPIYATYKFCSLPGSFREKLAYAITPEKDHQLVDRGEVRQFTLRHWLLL
T1 sequence (Q9WTR4 whole entry): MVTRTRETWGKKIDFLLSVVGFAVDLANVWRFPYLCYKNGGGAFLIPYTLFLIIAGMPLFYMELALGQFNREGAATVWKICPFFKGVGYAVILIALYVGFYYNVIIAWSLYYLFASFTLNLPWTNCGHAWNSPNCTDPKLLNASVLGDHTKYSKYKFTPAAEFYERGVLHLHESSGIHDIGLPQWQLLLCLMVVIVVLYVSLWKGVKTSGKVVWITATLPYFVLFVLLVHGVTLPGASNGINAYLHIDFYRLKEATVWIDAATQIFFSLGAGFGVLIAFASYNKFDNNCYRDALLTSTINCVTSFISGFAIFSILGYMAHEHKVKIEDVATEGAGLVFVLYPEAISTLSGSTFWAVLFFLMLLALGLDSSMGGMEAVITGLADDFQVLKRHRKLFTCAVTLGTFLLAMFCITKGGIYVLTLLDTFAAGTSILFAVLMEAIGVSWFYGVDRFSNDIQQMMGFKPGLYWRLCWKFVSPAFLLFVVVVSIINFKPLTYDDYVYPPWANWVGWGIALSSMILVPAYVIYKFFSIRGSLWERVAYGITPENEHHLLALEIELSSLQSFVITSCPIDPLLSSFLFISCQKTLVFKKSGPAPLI
Chain of Sodium-dependent serotonin transporter (P31652 whole entry): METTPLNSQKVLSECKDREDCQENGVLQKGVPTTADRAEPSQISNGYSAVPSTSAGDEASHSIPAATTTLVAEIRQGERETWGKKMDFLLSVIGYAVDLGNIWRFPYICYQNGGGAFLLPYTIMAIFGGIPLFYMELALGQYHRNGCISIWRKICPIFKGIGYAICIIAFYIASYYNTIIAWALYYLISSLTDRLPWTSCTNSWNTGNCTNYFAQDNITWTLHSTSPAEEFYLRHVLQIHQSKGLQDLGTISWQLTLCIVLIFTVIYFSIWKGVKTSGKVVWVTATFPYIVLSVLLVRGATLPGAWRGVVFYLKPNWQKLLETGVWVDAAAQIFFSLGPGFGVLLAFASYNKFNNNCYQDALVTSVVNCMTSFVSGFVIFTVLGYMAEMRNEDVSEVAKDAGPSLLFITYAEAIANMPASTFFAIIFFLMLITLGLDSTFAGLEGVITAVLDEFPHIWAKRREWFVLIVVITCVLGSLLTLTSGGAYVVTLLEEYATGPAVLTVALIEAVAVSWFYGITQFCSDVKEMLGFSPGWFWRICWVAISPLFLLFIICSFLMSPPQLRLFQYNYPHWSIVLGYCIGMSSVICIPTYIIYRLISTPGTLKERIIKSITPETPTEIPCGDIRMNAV

Compound | Ki [1] [µM] | Ki [2] [µM] | Ki [3] [µM] | Ki [4] [µM] | Ki [5] [µM]
COC(=O)C1C2CC3CCC1N3C/C2=C\c1ccc(-c2ccsc2)s1 (configuration not stated) | 2.14 | 0.032 | 0.114 | 0.0059 | –
COC(=O)C1C2CC3CCC1N3C/C2=C\c1ccc(-c2ccccc2OC)cc1 (configuration not stated) | > 10 | 1.34 | 0.787 | 0.0065 | –
COC(=O)C1C2CC[C@@H]3C[C@@H]1/C(=C/c1ccc(-c4cc(F)cc(F)c4)cc1)CN23 (some centres not stated) | 2.83 | 0.0012 | 0.228 | 0.0013 | –
COC(=O)C1C2CC3CCC1N3C/C2=C\c1ccc(-c2ccccc2F)cc1 (configuration not stated) | > 10 | 0.466 | 3.4 | 0.393 | –
COC(=O)C1C2CC3CCC1N3C/C2=C\c1ccc(-c2ccc(F)cc2)cc1 (configuration not stated) | 1.06 | 1.39 | 0.161 | 0.053 | –
COC(=O)C1C2CC3CCC1N3C/C2=C\c1ccc(-c2cccc(F)c2)cc1 (configuration not stated) | > 10 | 0.138 | 0.646 | 0.005 | –
COC(=O)C1C2CC3CCC1N3C/C2=C\C#Cc1ccc(F)cc1 (configuration not stated) | 15.1 | 0.017 | > 10 | 0.104 | –
COC(=O)C1C2CC[C@@H]3C[C@@H]1/C(=C/c1ccc(-c4ccc(F)c(F)c4)cc1)CN23 (some centres not stated) | 3.4 | 0.295 | 0.106 | 0.0008 | –
COC(=O)C1C2CC3CCC1N3C/C2=C\C#Cc1ccccc1 (configuration not stated) | 11.9 | 0.207 | > 10 | > 10 | –
COC(=O)C1C2CC3CCC1N3C/C2=C\c1ccc(-c2cccc(C(F)(F)F)c2)cc1 (configuration not stated) | 7.06 | 1.17 | 0.556 | 0.0088 | –
COC(=O)C1C2CC3CCC1N3C/C2=C\C#Cc1cc(F)ccc1F (configuration not stated) | > 10 | 0.215 | > 10 | 1.72 | –
COC(=O)C1C2CC3CCC1N3C/C2=C\C#Cc1c(F)cccc1F (configuration not stated) | > 10 | 0.032 | > 10 | 0.0053 | –
COC(=O)C1C2CC3CCC1N3C/C2=C\c1ccc(-c2ccc(SC)cc2)cc1 (configuration not stated) | > 10 | 1.08 | 1.05 | 0.062 | –
COC(=O)C1C2CC3CCC1N3C/C2=C\C#Cc1cccc(F)c1 (configuration not stated) | 13.5 | 0.317 | > 10 | 2.11 | –
COC(=O)C1C2CC3CCC1N3C/C2=C\C#Cc1ccc(F)c(F)c1 (configuration not stated) | 7.09 | 0.069 | 3.15 | 0.11 | –
COC(=O)C1C2CC3CCC1N3C/C2=C\c1ccc(-c2ccc(SC)cc2)s1 (configuration not stated) | > 10 | – | – | – | –
COC(=O)C1C2CC3CCC1N3C/C2=C\C#Cc1ccsc1 (configuration not stated) | 2.74 | 0.086 | > 10 | – | 0.022
COC(=O)C1C2CC3CCC1N3C/C2=C\c1ccc(-c2cccc(OC)c2)cc1 (configuration not stated) | 4.06 | 0.346 | 0.114 | 0.0094 | –
COC(=O)C1C2CC3CCC1N3C/C2=C\C#Cc1cccs1 (configuration not stated) | 13.9 | 0.142 | > 10 | 1.57 | –
COC(=O)C1C2CC3CCC1N3C/C2=C\C#Cc1ccc(C)c(F)c1 (configuration not stated) | > 10 | 0.914 | 7.07 | 0.052 | –
